From patent EP1724268A1, “COMPOUND HAVING TGF-BETA INHIBITORY ACTIVITY AND PHARMACEUTICAL COMPOSITION CONTAINING SAME” (KIRIN BEER KABUSHIKI KAISHA, priority 2004, dated 2005)

System: TGFβ signal
Experiment: TGFβ signal inhibitory activity, (SBE)4-Luc reporter in A549 cells (Test Examples 1A and 1B)
Type: cell-based, human
Details: Homo sapiens, A549, TGFβ-1 2 ng/ml, 4 hr, Table 1A, read-out: TGFβ inhibition rate, %; for inhibition at 3 µM: test compound 3 µM; for inhibition at 10 µM: test compound 10 µM
Method in brief: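 Stable A549 line carrying (SBE)4-Luc Smad3-binding reporter treated with compound plus TGFβ-1 (2 ng/ml) for 4 hr; luciferase read by chemiluminescence. Percent inhibition relative to TGFβ-only and untreated cells, tested at 3 µM and 10 µM, some also at 1 µM.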

Row | SMILES | inhibition at 3 µM [%] | inhibition at 10 µM [%]
1 | COc1cc2nccc(Oc3cc4cccnc4nc3-c3ccccc3)c2cc1OC(C)C [Compound 118, 3-(6-Isopropoxy-7-methoxy-quinolin-4-yloxy)-2-phenyl-[1,8]naphthyridine] | 100 | 100
2 | COc1cc2c(Oc3cc(C)c(C)nc3-c3ccccn3)ccnc2cc1C [Compound 119, 3-(6-Methoxy-7-methyl-quinolin-4-yloxy)-5,6-dimethyl-[2,2']bipyridine] | 100 | 100
3 | COc1cc2nccc(Oc3cc(C)c(C)nc3-c3ccccn3)c2cc1OC(C)C [Compound 120, 3-(6-Isopropoxy-7-methoxy-quinolin-4-yloxy)-5,6-dimethyl-[2,2']bipyridine] | 94 | 100
4 | COc1ccc2nccc(Oc3cc(C)c(C)nc3-c3ccccn3)c2n1 [Compound 121, 8-(5,6-Dimethyl-[2,2']bipyridinyl-3-yloxy)-2-methoxy-[1,5]naphthyridine] | 98 | 100
5 | COc1cc2nccc(Oc3cc4cccnc4nc3-c3ccccc3)c2cc1OCc1ccccc1 [Compound 123, 3-(6-Benzyloxy-7-methoxy-quinolin-4-yloxy)-2-phenyl-[1,8]naphthyridine] | 99 | 100
6 | COc1cc2nccc(Oc3cc4cccnc4nc3-c3ccccc3)c2cc1O [Compound 124, 7-Methoxy-4-(2-phenyl-[1,8]naphthyridin-3-yloxy)-quinolin-6-ol] | 99 | 100
7 | COc1cc2nccc(Oc3cc4cccnc4nc3-c3ccccc3)c2cc1OCCO [Compound 125, 2-[7-Methoxy-4-(2-phenyl-[1,8]naphthyridin-3-yloxy)-quinolin-6-yloxy]-ethanol] | 99 | 100
8 | Cc1cc(Oc2ccnc3cc(C(N)=O)ccc23)c(-c2ccccn2)nc1C [Compound 126, 4-(5,6-Dimethyl-[2,2']bipyridinyl-3-yloxy)-quinoline-7-carboxylic acid amide] | 93 | 100
9 | COc1ccc2nccc(Oc3cc4cccnc4nc3-c3ccccc3)c2n1 [Compound 128, 2-Methoxy-8-(2-phenyl-[1,8]naphthyridin-3-yloxy)-[1,5]naphthyridine] | 93 | 100
10 | Cc1cc(Oc2ccnc3ccc(Cl)c(Cl)c23)c(-c2ccccn2)nc1C [Compound 130, 3-(5,6-Dichloro-quinolin-4-yloxy)-5,6-dimethyl-[2,2']bipyridine] | 100 | 100
11 | Cc1cc(Oc2ccnc3cc(Cl)c(Cl)cc23)c(-c2ccccn2)nc1C [Compound 131, 3-(6,7-Dichloro-quinolin-4-yloxy)-5,6-dimethyl-[2,2']bipyridine] | 99 | 100
12 | COc1cc2nccc(Oc3cc4cccnc4nc3-c3ccccc3)c2cc1Br [Compound 132, 3-(6-Bromo-7-methoxy-quinolin-4-yloxy)-2-phenyl-[1,8]naphthyridine] | 98 | 100
13 | COc1cc2nccc(Oc3cc(C)c(C)nc3-c3ccccn3)c2cc1Br [Compound 133, 3-(6-Bromo-7-methoxy-quinolin-4-yloxy)-5,6-dimethyl-[2,2']bip yridine] | 99 | 100
14 | Cc1cc(Oc2ccnc3ccc(OCc4ccccc4)cc23)c(-c2ccccn2)nc1C [Compound 136, 3-(6-Benzyloxy-quinolin-4-yloxy)-5,6-dimethyl-[2,2']bipyridine] | 93 | 100
15 | Cc1cc(Oc2ccnc3cc(OCc4ccccc4)ccc23)c(-c2ccccn2)nc1C [Compound 137, 3-(7-Benzyloxy-quinolin-4-yloxy)-5,6-dimethyl-[2,2']bipyridine] | 88 | 100
16 | COc1cc2nccc(Oc3cc(C)c(C)nc3-c3ccccn3)c2cc1OCc1ccccc1 [Compound 138, 3-(6-Benzyloxy-7-methoxy-quinolin-4-yloxy)-5,6-dimethyl-[2,2'] bipyridine] | 98 | 100
17 | Cc1cc(Oc2ccnc3ccc(O)cc23)c(-c2ccccn2)nc1C [Compound 139, 4-(5,6-Dimethyl-[2,2']bipyridinyl-3-yloxy)-quinolin-6-ol] | 100 | 100
18 | Cc1cc(Oc2ccnc3cc(O)ccc23)c(-c2ccccn2)nc1C [Compound 140, 4-(5,6-Dimethyl-[2,2']bipyridinyl-3-yloxy)-quinolin-7-ol] | 99 | 100
19 | COc1cc2nccc(Oc3cc(C)c(C)nc3-c3ccccn3)c2cc1O [Compound 141, 4-(5,6-Dimethyl-[2,2']bipyridinyl-3-yloxy)-7-methoxy-quinolin-6-ol] | 100 | 100

Row | SMILES | inhibition at 3 µM [%] | inhibition at 10 µM [%]
20 | Cc1cc(Oc2ccnc3ccc(OCCO)cc23)c(-c2ccccn2)nc1C [Compound 142, 2-[4-(5,6-Dimethyl-[2,2']bipyridinyl-3-yloxy)-quinolin-6-yloxy]-ethanol] | 98 | 100
21 | Cc1cc(Oc2ccnc3cc(OCCO)ccc23)c(-c2ccccn2)nc1C [Compound 143, 2-[4-(5,6-Dimethyl-[2,2']bipyridinyl-3-ylox)-quinolin-7-yloxy]-ethanol] | 100 | 100
22 | COc1cc2nccc(Oc3cc(C)c(C)nc3-c3ccccn3)c2cc1OCCO [Compound 144, 2-[4-(5,6-Dimethyl-[2,2']bipyridinyl-3-yloxy)-7-methoxy-quinolin-6-yloxy]-ethanol] | 93 | 100
23 | COc1cc2c(Oc3cc(C)c(C)nc3-c3ccccn3)ccnc2cc1C(N)=O [Compound 145, 4-(5,6-Dimethyl-[2,2']bipyridinyl-3-yloxy)-6-methgxy-quinoline-7-carboxylic acid amide] | 78 | 100
24 | Cc1cc(Oc2ccnc3cc(Cl)c(C(N)=O)cc23)c(-c2ccccn2)nc1C [Compound 146, 7-Chloro-4-(5,6-dimethyl-[2,2']bipyridinyl-3-yloxy)-quinoline-6-carboxylic acid amide] | 54 | 95
25 | COc1cc2c(Oc3cc4cccnc4nc3-c3ccccc3)ccnc2cc1C(N)=O [Compound 147, 6-Methoxy-4-(2-phenyl-[1,8]naphthyridin-3-yloxy)-quinoline-7-carboxylic acid amide] | 34 | 77
26 | COC(=O)c1cc2c(Oc3cc4cccnc4nc3-c3ccccc3)ccnc2cc1Cl [Compound 148, Methyl 7-chloro-4-(2-phenyl-[1,8]naphthyridin-3-yloxy)-quinoline-6-carboxylate] | 58 | 98
27 | COc1cc2nccc(Oc3cc(C)c(C)nc3-c3ccccn3)c2cc1NCCO [Compound 154, 2-[4-(5,6-Dimethyl-[2,2']bipyridinyl-3-yloxy)-7-methoxy-quinolin-6-ylamino]-ethanol] | 99 | 100
28 | COc1cc2nccc(Oc3cc(C)c(C)nc3-c3ccccn3)c2cc1-c1cccnc1 [Compound 155, 3-(7-Methoxy-6-pyridin-3-yl-quinotin-4-yloxy)-5,6-dimethyl-[2,2']bipyridine] | 99 | 100
29 | Cc1cc(Oc2ccnc3ccc(Cl)cc23)c(-c2ccccn2)nc1C [Compound 156, 3-(6-Chloro-quinolin-4-yloxy)-5,6-dimethyl-[2,2']bipyridine] | 100 | 100
30 | Cc1ccc2nccc(Oc3cc(C)c(C)nc3-c3ccccn3)c2c1 [Compound 157, 5,6-Dimethyl-3-(6-methyl-quinolin-4-yloxy)-[2,2']bipyridine] | 99 | 100
31 | COc1cc2nccc(Oc3cc(C)c(C)nc3-c3ncccn3)c2cc1F [Compound 158, 4-(5,6-Dimethyl-2-pyrimidin-2-yl-pyridin-3-yloxy)-6-fluoro-7-methoxy-quinoline] | 98 | 100
32 | COc1cc2nccc(Oc3cc4cccnc4nc3C)c2cc1F [Compound 160, 3-(6-Fluoro-7-methoxy-quinolin-4-yloxy)-2-methyl-[1,8]naphthyridine] | 56 | 87
33 | CCc1nc2ncccc2cc1Oc1ccnc2cc(OC)c(F)cc12 [Compound 161, 2-Ethyl-3-(6-fluoro-7-methoxy-qulnolin-4-yloxy)-[1,8]naphthyridine] | 68 | 95
34 | CCc1ccc(Oc2ccnc3cc(OC)c(F)cc23)c(-c2ccccn2)n1 [Compound 162, 6-Ethyl-3-(6-fluoro-7-methoxy-quinolin-4-yloxy)-[2,2']bipyridine] | 100 | 100
35 | Cc1cc(Oc2ccnc3ccc(-c4ccsc4)cc23)c(-c2ccccn2)nc1C [Compound 163, 5,6-Dimethyl-3-(6-thiophen-3-yl-quinolin-4-yloxy)-[2,2']bipyridine] | 92 | 100
36 | Cc1cc(Oc2ccnc3ccc(-c4csc5ccccc45)cc23)c(-c2ccccn2)nc1C [Compound 164, 3-(6-Benzo[b]thiophen-3-yl-quinolin-4-yloxy)-5,6-dimethyl-[2,2']bipyridine] | 75 | 100
37 | Cc1ccc(-c2ccc3nccc(Oc4cc(C)c(C)nc4-c4ccccn4)c3c2)s1 [Compound 165, 5,6-Dimethyl-3-[6-(5-methyl-thiophen-2-yl)-quinolin-4-yloxy]-[2,2']bipyridine] | 90 | 100
38 | Cc1cc(Oc2ccnc3ccc(-c4cc5ccccc5o4)cc23)c(-c2ccccn2)nc1C [Compound 166, 3-(6-Benzofuran-2-yl-quinolin-4-yloxy)-5,6-dimethyl-[2,2']bipyridine] | 78 | 100
